Measurements from PubChem BioAssay AID1259411 (Chemical Carcinogenesis Research Information System (CCRIS), 2018).
Activity calls are given as the source filed them. How the calls were made is not given here.

Test system: rodent carcinogenicity bioassays, tumor incidence
Assay: CCRIS carcinogenicity studies
Outline: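 NCI-built, expert-reviewed records of carcinogenicity and related test outcomes (mutagenicity, tumor promotion/inhibition) compiled from published and report sources, historical span 1985-2011, not updated.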

## O.O.O.O.O.[Cd+2].[Cd+2].[Cl-].[Cl-].[Cl-].[Cl-]
Species: HAMSTER, Strain/Sex: SYRIAN/FEMALE, Route: SUBCUTANEOUS, Dose: 0, 30, 40, 50 UMOL/KG ONCE ON THE FOURTH DAY OF THE ESTROUS CYCLE (STUDY DURATION: 78 WK), Dose: 0, 30, 40, 50 UMOL/KG ONCE ON THE FOURTH DAY OF THE ESTROUS CYCLE (STUDY DURATION: 78 WK)
  carcinogen call: inactive; negative
Species: HAMSTER, Strain/Sex: SYRIAN/MALE, Route: SUBCUTANEOUS, Dose: 0, 20 UMOL/KG ONCE (STUDY DURATION: 104 WK), Tumor Site: Type of Lesion: ADRENAL GLAND: TUMOR
  carcinogen call: active; positive
Species: MOUSE, Strain/Sex: C57/MALE, Route: SUBCUTANEOUS, Dose: 0, 20 UMOL/KG ONCE (STUDY DURATION: 104 WK)
  carcinogen call: inactive; negative
Species: MOUSE, Strain/Sex: NFS/MALE, Route: SUBCUTANEOUS, Dose: 0, 20 UMOL/KG ONCE (STUDY DURATION: 104 WK), Tumor Site: Type of Lesion: LYMPHOID TISSUE: LYMPHOMA
  carcinogen call: active; positive
Species: RAT, Strain/Sex: WISTAR/FEMALE, Route: ORAL, Dose: 0, 1, 3, 10, 50 PPM IN DIET FOR 104 WK (STUDY DURATION: 2 YR), Dose: 0, 1, 3, 10, 50 PPM IN DIET FOR 104 WK (STUDY DURATION: 2 YR)
  carcinogen call: inactive; negative
Species: RAT, Strain/Sex: WISTAR/MALE, Route: ORAL, Dose: 0, 1, 3, 10, 50 PPM IN DIET FOR 104 WK (STUDY DURATION: 2 YR), Dose: 0, 1, 3, 10, 50 PPM IN DIET FOR 104 WK (STUDY DURATION: 2 YR)
  carcinogen call: inactive; negative
Species: RAT, Strain/Sex: WISTAR/MALE, Route: ORAL, Dose: 0, 25, 50, 100, 200 PPM IN DIET FOR 77 WK TO RATS MAINTAINED ON ZINC ADEQUATE (60 PPM) DIET (STUDY DURATION: 79 WK), Dose: 0, 25, 50, 100, 200 PPM IN DIET FOR 77 WK TO RATS MAINTAINED ON ZINC ADEQUATE (60 PPM) DIET (STUDY DURATION: 79 WK), Tumor Site: Type of Lesion: HEMATOPOIETIC SYSTEM: LEUKEMIA, TESTIS: TUMOR
  carcinogen call: active; positive
Species: RAT, Strain/Sex: WISTAR/MALE, Route: ORAL, Dose: 0, 25, 50, 100, 200 PPM IN DIET FOR 77 WK TO RATS MAINTAINED ON ZINC DEFICIENT (7 PPM) DIET (STUDY DURATION: 79 WK), Dose: 0, 25, 50, 100, 200 PPM IN DIET FOR 77 WK TO RATS MAINTAINED ON ZINC DEFICIENT (7 PPM) DIET (STUDY DURATION: 79 WK), Tumor Site: Type of Lesion: HEMATOPOIETIC SYSTEM: LEUKEMIA
  carcinogen call: active; positive
Species: RAT, Strain/Sex: WISTAR/MALE, Route: SUBCUTANEOUS, Dose: 0, 5, 10, 30 UMOL ONCE ADMINISTERED TO RATS FED DIETS ADEQUATE (60 PPM) IN ZINC (STUDY DURATION: 92 WK), Dose: 0, 5, 10, 30 UMOL ONCE ADMINISTERED TO RATS FED DIETS ADEQUATE (60 PPM) IN ZINC (STUDY DURATION: 92 WK), Tumor Site: Type of Lesion: TESTES: ADENOMA
  carcinogen call: active; positive
Species: RAT, Strain/Sex: WISTAR/MALE, Route: SUBCUTANEOUS, Dose: 0, 5, 10, 30 UMOL ONCE ADMINISTERED TO RATS FED DIETS DEFICIENT (7 PPM) IN ZINC (STUDY DURATION: 92 WK), Dose: 0, 5, 10, 30 UMOL ONCE ADMINISTERED TO RATS FED DIETS DEFICIENT (7 PPM) IN ZINC (STUDY DURATION: 92 WK), Tumor Site: Type of Lesion: TESTES: ADENOMA, INJECTION SITE: SARCOMA
  carcinogen call: active; positive

## CC(O)COC(C)(C)C (stereo not drawn)
Species: MOUSE, Strain/Sex: B6C3F1/FEMALE, Route: INHALATION, Dose: 0, 75, 300, 1200 PPM 6 HR/D, 5 D/WK FOR 104 WKS, Dose: 0, 75, 300, 1200 PPM 6 HR/D, 5 D/WK FOR 104 WKS, Tumor Site: Type of Lesion: LIVER: HEPATOCELLULAR ADENOMA, CARCINOMA OR HEPATOBLASTOMA
  carcinogen call: active; positive
Species: MOUSE, Strain/Sex: B6C3F1/MALE, Route: INHALATION, Dose: 0, 75, 300, 1200 PPM 6 HR/D, 5 D/WK FOR 104 WKS, Dose: 0, 75, 300, 1200 PPM 6 HR/D, 5 D/WK FOR 104 WKS, Tumor Site: Type of Lesion: LIVER: HEPATOCELLULAR ADENOMA, CARCINOMA OR HEPATOBLASTOMA
  carcinogen call: active; positive
Species: RAT, Strain/Sex: F344/N/FEMALE, Route: INHALATION, Dose: 0, 75, 300, 1200 PPM 6 HR/D, 5 D/WK FOR 104 WKS, Dose: 0, 75, 300, 1200 PPM 6 HR/D, 5 D/WK FOR 104 WKS
  carcinogen call: inactive; negative
Species: RAT, Strain/Sex: F344/N/MALE, Route: INHALATION, Dose: 0, 75, 300, 1200 PPM 6 HR/D, 5 D/WK FOR 104 WKS, Dose: 0, 75, 300, 1200 PPM 6 HR/D, 5 D/WK FOR 104 WKS, Tumor Site: Type of Lesion: NO STATISTICALLY SIGNIFICANT INCREASE IN TUMORS BUT KIDNEY TUBULE TUMORS INCREASED SLIGHTLY
  carcinogen call: equivocal

## O=C(Nc1ccccc1)Nc1ccnc(Cl)c1
Species: Mouse, Strain/Sex: CD-1/Female (60/Group), Route: Oral, Dose: 0, 10, 1000 mg/kg/day of 96.9% forchlorfenuron in diet for 18 mo, study duration 18 mo, Dose: 0, 10, 1000 mg/kg/day of 96.9% forchlorfenuron in diet for 18 mo, study duration 18 mo
  carcinogen call: inactive; negative
Species: Mouse, Strain/Sex: CD-1/Male (60/Group), Route: Oral, Dose: 0, 10, 1000 mg/kg/day of 96.9% forchlorfenuron in diet for 18 mo, study duration 18 mo, Dose: 0, 10, 1000 mg/kg/day of 96.9% forchlorfenuron in diet for 18 mo, study duration 18 mo
  carcinogen call: inactive; negative
Species: Rat, Strain/Sex: Strain not specified by Department of Pesticides Regulation/Female (70/Group), Route: Oral, Dose: 0, 9, 122, 518 mg/kg/day of 98.5% forchlorfenuron in diet for up to 2 yr, study duration 2 yr, Dose: 0, 9, 122, 518 mg/kg/day of 98.5% forchlorfenuron in diet for up to 2 yr, study duration 2 yr
  carcinogen call: inactive; negative
Species: Rat, Strain/Sex: Strain not specified by Department of Pesticides Regulation/Male (70/Group), Route: Oral, Dose: 0, 7, 93, 352 mg/kg/day of 98.5% forchlorfenuron in diet for up to 2 yr, study duration 2 yr, Dose: 0, 7, 93, 352 mg/kg/day of 98.5% forchlorfenuron in diet for up to 2 yr, study duration 2 yr
  carcinogen call: inactive; negative

## O=[N+]([O-])c1ccccc1Cl
Species: MOUSE, Strain/Sex: CD-1/FEMALE, Route: ORAL, Dose: 3000, 6000 MG/KG IN DIET FOR 18 MO, Tumor Site: Type of Lesion: LIVER: HEPATOCELLULAR CARCINOMA
  carcinogen call: active; positive

## CC1CS(=O)(=O)CCN1/N=C/c1ccc([N+](=O)[O-])o1 (stereo not drawn)
Species: MOUSE, Strain/Sex: SWISS/FEMALE, Route: INTRAPERITONEAL, Dose: 0, 8 UG/G BW 1/D FOR 30 DAYS (STUDY DURATION: LIFETIME), Tumor Site: Type of Lesion: LYMPHATIC SYSTEM: LYMPHOMA
  carcinogen call: active; positive
Species: MOUSE, Strain/Sex: SWISS/FEMALE, Route: INTRAPERITONEAL, Dose: 0, 8 UG/G BW 1/D FOR 60 DAYS (STUDY DURATION: LIFETIME), Tumor Site: Type of Lesion: LYMPHATIC SYSTEM: LYMPHOMA
  carcinogen call: active; positive

## O=C1NC(=O)C(=O)C(=O)N1
Species: Rat, Strain/Sex: WBN/Kob (Diabetic)/Female (17/group), Route: Intravenous, Dose: 0, 40 mg/kg once, study duration 75 wks, Tumor Site: Type of Lesion: Forestomach: squamous cell carcinoma
  carcinogen call: active; positive
Species: Rat, Strain/Sex: WBN/Kob (Diabetic)/Male (31/ group), Route: Intravenous, Dose: 0, 50 mg/kg once, study duration 75 wks, Tumor Site: Type of Lesion: Forestomach: squamous cell carcinoma
  carcinogen call: active; positive
